Literature values as cited in patent US20130251663A1, “Tissue Preservation Fluid” (GREENBLENDZ, INC., priority 2012, published 2013).

Test system: eyes nose and throat
Conditions: airborne exposure

C=O [formaldehyde]
Airborne concentration immediately dangerous to life and health: 100 ppm | Airborne concentration that can cause irritation of the eyes nose and throat: above 0.1 ppm
